Measured values as given in ChEMBL document CHEMBL4831493 (Eur J Med Chem, 2021).
Values belong to the compound of their own block, whether it stands above or below them. Calls of active or inactive are those of the source. No cut-off for these calls is given here.

Legend:
Acetylcholinesterase [1] = molecular target: Acetylcholinesterase (Homo sapiens, UniProt P22303); assay: Inhibition of human recombinant AChE preincubated for 1 min in presence of DNTB followed by addition of acetylthiocholine iodide substrate and measured after 20 mins by Ellman's method
Sequence of Acetylcholinesterase (Homo sapiens, UniProt P22303) (P22303 whole entry): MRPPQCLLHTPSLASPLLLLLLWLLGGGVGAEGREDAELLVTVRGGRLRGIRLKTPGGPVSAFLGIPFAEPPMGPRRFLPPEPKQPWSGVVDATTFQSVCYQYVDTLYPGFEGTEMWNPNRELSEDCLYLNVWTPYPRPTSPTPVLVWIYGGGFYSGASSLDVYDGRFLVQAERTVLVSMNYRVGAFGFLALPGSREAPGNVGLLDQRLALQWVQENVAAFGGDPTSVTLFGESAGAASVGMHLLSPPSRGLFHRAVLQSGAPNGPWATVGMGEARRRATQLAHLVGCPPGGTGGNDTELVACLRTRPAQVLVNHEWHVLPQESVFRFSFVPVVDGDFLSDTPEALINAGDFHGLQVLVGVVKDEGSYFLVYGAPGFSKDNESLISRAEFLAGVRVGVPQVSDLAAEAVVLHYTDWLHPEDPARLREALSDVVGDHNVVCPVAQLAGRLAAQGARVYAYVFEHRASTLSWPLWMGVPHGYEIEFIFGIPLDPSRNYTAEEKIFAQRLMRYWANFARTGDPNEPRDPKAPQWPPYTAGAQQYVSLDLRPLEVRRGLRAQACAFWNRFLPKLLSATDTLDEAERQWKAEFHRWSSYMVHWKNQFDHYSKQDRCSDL

Acetylcholinesterase [2] = molecular target: Acetylcholinesterase (Electrophorus electricus, UniProt O42275); assay: Inhibition of electric eel recombinant AChE preincubated for 1 min in presence of DNTB followed by addition of acetylthiocholine iodide substrate and measured after 20 mins by Ellman's method
Sequence of Acetylcholinesterase (Electrophorus electricus, UniProt O42275) (O42275 whole entry): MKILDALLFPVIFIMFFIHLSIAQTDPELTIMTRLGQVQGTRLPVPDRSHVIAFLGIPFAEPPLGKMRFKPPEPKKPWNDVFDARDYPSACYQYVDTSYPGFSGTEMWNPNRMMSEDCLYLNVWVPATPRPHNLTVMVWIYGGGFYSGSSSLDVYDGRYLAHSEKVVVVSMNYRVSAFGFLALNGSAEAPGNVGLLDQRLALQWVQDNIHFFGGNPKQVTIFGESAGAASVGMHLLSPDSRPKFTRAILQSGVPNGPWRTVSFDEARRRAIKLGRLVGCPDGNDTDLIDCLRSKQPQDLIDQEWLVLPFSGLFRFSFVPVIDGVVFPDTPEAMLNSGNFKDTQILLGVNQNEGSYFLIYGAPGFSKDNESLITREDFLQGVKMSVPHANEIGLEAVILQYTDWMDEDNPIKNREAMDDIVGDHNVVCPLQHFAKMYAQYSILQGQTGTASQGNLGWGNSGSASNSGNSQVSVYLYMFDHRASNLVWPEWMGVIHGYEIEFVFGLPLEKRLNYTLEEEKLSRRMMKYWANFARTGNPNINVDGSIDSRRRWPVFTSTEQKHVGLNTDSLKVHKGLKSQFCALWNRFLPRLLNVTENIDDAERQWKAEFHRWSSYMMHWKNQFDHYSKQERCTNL

[3] = molecular target: Glycogen synthase kinase-3 beta (Homo sapiens, UniProt P49841); assay: Inhibition of human recombinant N-terminal His-tagged GSK3beta expressed in Escherichia coli using RRRPASVPPSPSLS RHS(pS)HQRR as substrate incubated for 30 mins in presence of ATP by Kinase-Glo reagent based luminescence assay
Sequence of Glycogen synthase kinase-3 beta (P49841 whole entry): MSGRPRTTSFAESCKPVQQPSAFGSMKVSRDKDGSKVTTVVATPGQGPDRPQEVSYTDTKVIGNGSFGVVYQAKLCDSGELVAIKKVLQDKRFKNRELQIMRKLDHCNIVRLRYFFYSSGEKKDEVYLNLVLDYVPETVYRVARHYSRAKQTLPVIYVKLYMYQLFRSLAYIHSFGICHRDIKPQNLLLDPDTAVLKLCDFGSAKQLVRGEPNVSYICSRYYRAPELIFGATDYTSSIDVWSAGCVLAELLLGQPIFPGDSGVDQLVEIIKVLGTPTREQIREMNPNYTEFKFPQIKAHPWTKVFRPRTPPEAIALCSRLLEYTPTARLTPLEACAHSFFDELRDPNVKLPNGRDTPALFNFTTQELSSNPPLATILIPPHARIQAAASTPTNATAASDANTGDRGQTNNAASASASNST

[4] = Effective permeability of the compound by PAMPA-BBB assay; format: ADME; conditions: read-out: Peff
[5] = Drug level in ICR mouse brain at 10 mg/kg, po measured after 1 hr by LC/MS/MS analysis; format: ADME, organism-based; conditions: read-out: Ct
[6] = Drug level in ICR mouse brain at 10 mg/kg, po measured after 1.5 hrs by LC/MS/MS analysis; format: ADME, organism-based; conditions: read-out: Ct
[7] = Drug level in ICR mouse plasma at 10 mg/kg, po measured after 1 hr by LC/MS/MS analysis; format: ADME, organism-based
[8] = Drug level in ICR mouse plasma at 10 mg/kg, po measured after 1.5 hrs by LC/MS/MS analysis; format: ADME, organism-based
[9] = Ratio of drug level in brain to plasma of ICR mouse at 10 mg/kg, po measured after 1 hr by LC/MS/MS analysis; format: ADME, organism-based; conditions: brain and plasma
[10] = Ratio of drug level in brain to plasma of ICR mouse at 10 mg/kg, po measured after 1.5 hrs by LC/MS/MS analysis; format: ADME, organism-based; conditions: brain and plasma
HT-22 = assay: Neuroprotective activity in mouse HT-22 cells assessed as glutamate-induced cell mortality at 6 uM preincubated for 1 hr followed by addition of glutamate and measured after 24 hrs (reference value: 58%); format: functional; conditions: time 25 hrs
[11] = AUC (0 to infinity) in Sprague-Dawley rat at 10 mg/kg, po measured up to 24 hrs by LC-MS/MS analysis; format: ADME, organism-based; set-up: route oral, dose 10 mg/kg, time <=24; conditions: in vivo
[12] = AUC (0 to infinity) in Sprague-Dawley rat at 1 mg/kg, iv measured up to 24 hrs by LC-MS/MS analysis; format: ADME, organism-based; set-up: route intravenous, dose 1 mg/kg, time <=24; conditions: in vivo
[13] = Cmax in Sprague-Dawley rat at 10 mg/kg, po measured up to 24 hrs by LC-MS/MS analysis; format: ADME, organism-based; set-up: route oral, dose 10 mg/kg, time <=24; conditions: in vivo
[14] = Cmax in Sprague-Dawley rat at 1 mg/kg, iv measured up to 24 hrs by LC-MS/MS analysis; format: ADME, organism-based; set-up: route intravenous, dose 1 mg/kg, time <=24; conditions: in vivo
[15] = Tmax in Sprague-Dawley rat at 10 mg/kg, po measured up to 24 hrs by LC-MS/MS analysis; format: ADME, organism-based; conditions: in vivo
[16] = Half life in Sprague-Dawley rat at 10 mg/kg, po measured up to 24 hrs by LC-MS/MS analysis; format: ADME, organism-based; conditions: in vivo
[17] = Half life in Sprague-Dawley rat at 1 mg/kg, iv measured up to 24 hrs by LC-MS/MS analysis; format: ADME, organism-based; conditions: in vivo
[18] = MRT (0 to infinity) in Sprague-Dawley rat at 10 mg/kg, po measured up to 24 hrs by LC-MS/MS analysis; format: ADME, organism-based; conditions: in vivo
[19] = MRT (0 to infinity) in Sprague-Dawley rat at 1 mg/kg, iv measured up to 24 hrs by LC-MS/MS analysis; format: ADME, organism-based; conditions: in vivo
[20] = Oral bioavailability in Sprague-Dawley rat at 10 mg/kg measured up to 24 hrs by LC-MS/MS analysis; format: ADME, organism-based; conditions: in vivo
Mus musculus [21] = assay: Cognitive enhancing effect in mouse model of scopolamine-induced amnesia assessed as decrease in escape latency at 10 mg/kg/day, po measured by Morris water maze test; format: functional, organism-based
[22] = molecular target: T1, Acetylcholinesterase (Mus musculus) (UniProt P21836); conditions: ICR, dose 10.0 mg/kg, time 1.5 hrs
T1 sequence (whole entry): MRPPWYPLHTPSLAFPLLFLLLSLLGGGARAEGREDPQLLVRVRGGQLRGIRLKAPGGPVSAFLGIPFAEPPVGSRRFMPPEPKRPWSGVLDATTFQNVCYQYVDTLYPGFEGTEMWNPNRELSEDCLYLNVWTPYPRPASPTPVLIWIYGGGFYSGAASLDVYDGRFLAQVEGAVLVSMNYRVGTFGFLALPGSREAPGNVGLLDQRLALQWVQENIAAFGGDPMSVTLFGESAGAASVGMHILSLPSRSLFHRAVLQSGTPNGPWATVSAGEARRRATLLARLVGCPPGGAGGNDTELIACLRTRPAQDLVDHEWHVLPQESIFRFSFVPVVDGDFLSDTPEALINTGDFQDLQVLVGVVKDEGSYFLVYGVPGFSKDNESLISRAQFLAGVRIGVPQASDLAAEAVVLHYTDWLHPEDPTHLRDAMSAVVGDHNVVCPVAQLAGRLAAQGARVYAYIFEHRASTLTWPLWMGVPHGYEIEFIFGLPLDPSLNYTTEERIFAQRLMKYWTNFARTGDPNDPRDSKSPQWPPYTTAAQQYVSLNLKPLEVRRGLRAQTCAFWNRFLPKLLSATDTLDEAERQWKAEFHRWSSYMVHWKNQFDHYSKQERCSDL

[23] = molecular target: T1, Acetylcholinesterase (Mus musculus); conditions: ICR, dose 10.0 mg/kg, time 1.5 hrs; remark: listed apart in the source
Mus musculus [24] = assay: Improvement in learning and spatial memory in amyloid beta (1 to 42)-induced mouse model of Alzheimer's disease assessed as increase in spontaneous alteration at 10 mg/kg/day, po pretreated with amyloid beta42 for 3 days followed by treatment with compound and measured after 9 days measured by Y-maze test; format: functional, organism-based; conditions: time 9.0 day
Mus musculus [25] = assay: Improvement in learning and spatial memory in amyloid beta (1 to 42)-induced mouse model of Alzheimer's disease at 10 mg/kg/day, po pretreated with amyloid beta42 for 3 days followed by treatment with compound and measured after 9 days measured by Y-maze test; format: functional, organism-based; conditions: time 9.0 day

Structure (SMILES): O=C(CC1CCN(Cc2ccc(F)cc2)CC1)Nc1n[nH]c2cc(-c3cccnc3)ccc12
IC50 (Acetylcholinesterase [1]): 518 nM
IC50 (Acetylcholinesterase [2]): 216 nM
IC50 [3]: > 10000 nM

Structure (SMILES): O=C(Nc1cccc(OCC2CCN(Cc3ccccc3)CC2)c1)c1ccnc(NC(=O)C2CC2)c1
IC50 (Acetylcholinesterase [1]): 1390 nM
IC50 (Acetylcholinesterase [2]): 843 nM
IC50 [3]: 9750 nM

Structure (SMILES): O=C(NCC1CCN(Cc2ccccc2)CC1)c1n[nH]c2ccc(-c3cccnc3)cc12
IC50 (Acetylcholinesterase [1]): 1090 nM
IC50 (Acetylcholinesterase [2]): 552 nM
IC50 [3]: 95 nM

Structure (SMILES): O=C(CC1CCN(Cc2ccccc2)CC1)Nc1n[nH]c2cc(-c3cccnc3)ccc12
IC50 (Acetylcholinesterase [1]): 509 nM
IC50 (Acetylcholinesterase [2]): 264 nM
IC50 [3]: > 10000 nM

Structure (SMILES): O=C(NCC1CCN(Cc2ccccc2F)CC1)c1cncc(NC(=O)c2ccnc(NC(=O)C3CC3)c2)c1
IC50 (Acetylcholinesterase [1]): 1760 nM
IC50 (Acetylcholinesterase [2]): 1720 nM
IC50 [3]: 164 nM

Structure (SMILES): O=C(NCC1CCN(Cc2ccccc2)CC1)c1cncc(NC(=O)c2ccnc(NC(=O)C3CC3)c2)c1
IC50 (Acetylcholinesterase [1]): 1100 nM
IC50 (Acetylcholinesterase [2]): 1100 nM
IC50 [3]: 305 nM

Structure (SMILES): CC(=O)Nc1cc(C(=O)Nc2cncc(OCC3CCN(Cc4ccc(F)cc4)CC3)c2)ccn1
IC50 (Acetylcholinesterase [1]): 9 nM
IC50 (Acetylcholinesterase [2]): 16 nM
IC50 [3]: 3510 nM

Structure (SMILES): O=C(Nc1cncc(OCC2CCN(Cc3ccccc3)CC2)c1)c1ccnc(NC(=O)C2CC2)c1
IC50 (Acetylcholinesterase [1]): 2.6 nM
IC50 (Acetylcholinesterase [2]): 1.6 nM
IC50 [3]: 23 nM
Papp [4]: 8.2 ×10⁻⁶ cm/s
concentration at 1 h [5]: 34.4 ng/g
concentration at 1.5 h [6]: 43.7 ng/g
concentration at 1 h [7]: 112 ng/g
concentration at 1.5 h [8]: 62.9 ng/g
Kp at 1 h [9]: 0.306
Kp at 1.5 h [10]: 0.695
Activity (HT-22): 66%
AUC(0-inf) [11]: 377 ng·h/mL
AUC(0-inf) [12]: 152 ng·h/mL
Cmax [13]: 47.1 ng/mL
Cmax [14]: 98.3 ng/mL
Tmax [15]: 1.7 h
half-life [16]: 6.3 h
half-life [17]: 21.4 h
MRT inf [18]: 8.9 h
MRT inf [19]: 10 h
bioavailability [20]: 24.8%
Activity (Mus musculus [21]): Active
inhibition [22]: 73.1%
inhibition [23]: 48.3%

Structure (SMILES): O=C(CC1CCN(Cc2ccccc2F)CC1)Nc1n[nH]c2cc(-c3cccnc3)ccc12
IC50 (Acetylcholinesterase [1]): 691 nM
IC50 (Acetylcholinesterase [2]): 390 nM
IC50 [3]: > 10000 nM

IC50 [3]: > 10000 nM
Structure (SMILES): COc1cc2c(cc1OC)C(=O)C(CC1CCN(Cc3ccccc3)CC1)C2 (stereo not given) [DONEPEZIL]
Activity (Mus musculus [21]): Active
Activity (Mus musculus [24]): Active
Activity (Mus musculus [25]): Active

Structure (SMILES): O=C(NC1CCN(Cc2ccccc2)CC1)c1cncc(NC(=O)c2ccnc3[nH]ccc23)c1
IC50 (Acetylcholinesterase [1]): 358 nM
IC50 (Acetylcholinesterase [2]): 311 nM
IC50 [3]: 6800 nM

Structure (SMILES): Cc1ccccc1CN1CCC(CNC(=O)c2cncc(NC(=O)c3ccnc(NC(=O)C4CC4)c3)c2)CC1
IC50 (Acetylcholinesterase [1]): 4090 nM
IC50 (Acetylcholinesterase [2]): 3520 nM
IC50 [3]: 157 nM

Structure (SMILES): O=C(NCC1CCN(Cc2cccc(Cl)c2)CC1)c1cncc(NC(=O)c2ccnc(NC(=O)C3CC3)c2)c1
IC50 (Acetylcholinesterase [1]): 1090 nM
IC50 (Acetylcholinesterase [2]): 678 nM
IC50 [3]: 231 nM

Structure (SMILES): O=C(Nc1cncc(C(=O)NC2CCN(Cc3ccccc3)CC2)c1)c1ccnc(NC(=O)C2CC2)c1
IC50 (Acetylcholinesterase [1]): 622 nM
IC50 (Acetylcholinesterase [2]): 704 nM
IC50 [3]: 81 nM

Structure (SMILES): O=C(Nc1cncc(OC2CCN(Cc3ccccc3)CC2)c1)c1ccnc(NC(=O)C2CC2)c1
IC50 (Acetylcholinesterase [1]): > 10000 nM
IC50 (Acetylcholinesterase [2]): 9810 nM
IC50 [3]: 734 nM

Structure (SMILES): O=C(NCC1CCN(Cc2ccccc2F)CC1)c1n[nH]c2ccc(-c3cccnc3)cc12
IC50 (Acetylcholinesterase [1]): 2180 nM
IC50 (Acetylcholinesterase [2]): 718 nM
IC50 [3]: 79 nM
